Test results taken from patent US8173689B2 (Novartis AG, priority 2006, dated 2012).
Where two headings read alike, the source gives them in different places.

Tests used:
[1] = biological target: T1, cytoplasmic domain of the human CSF-1R (Homo sapiens, UniProt P07333); assay: In vitro kinase assay for colony stimulating factor-1 receptor (AlphaScreen); type: biochemical; settings: tested at about 1 μM, read-out: CSF-1R percent inhibition
T1 construct: Recombinant protein corresponding to the cytoplasmic domain of the human CSF-1R; purchased Invitrogen Corporation, Carlsbad, Calif; PV3249
T1 sequence (P07333 539-972 limits assumed): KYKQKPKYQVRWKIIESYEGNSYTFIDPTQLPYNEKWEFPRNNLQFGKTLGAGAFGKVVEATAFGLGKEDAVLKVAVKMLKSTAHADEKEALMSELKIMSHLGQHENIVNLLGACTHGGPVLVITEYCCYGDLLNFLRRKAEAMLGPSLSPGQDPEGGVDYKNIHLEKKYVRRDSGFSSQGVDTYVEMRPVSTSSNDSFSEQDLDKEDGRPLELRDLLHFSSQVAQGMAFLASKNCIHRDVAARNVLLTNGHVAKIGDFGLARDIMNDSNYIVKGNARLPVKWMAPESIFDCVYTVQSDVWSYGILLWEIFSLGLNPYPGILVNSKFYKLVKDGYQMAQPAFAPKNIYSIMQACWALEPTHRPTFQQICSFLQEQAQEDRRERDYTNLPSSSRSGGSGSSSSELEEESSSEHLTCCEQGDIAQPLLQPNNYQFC
Summary of the method: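 At a low ATP level of 1 μM, phosphate transfer by the cytoplasmic-domain kinase (4 nM) was quantified with an AlphaScreen anti-phosphotyrosine bead pair.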

[2] = biological target: T2, kinase domain of cKIT (Homo sapiens, UniProt P10721); assay: Inhibition of cKIT kinase signaling in an in vitro biochemical assay (alphascreen); settings: tested at about 1 μM, read-out: cKit percent inhibition
T2 construct: The kinase domain of cKIT was assayed in 50 mM Hepes; purchased Upstate 14-559

[3] = biological target: T3, kinase domain of PDGFRβ (Homo sapiens, UniProt P09619); assay: Inhibition of PDGFRb kinase signaling in an in vitro biochemical assay (alphascreen); settings: tested at about 1 μM, read-out: PDGFRβ percent inhibition
T3 construct: The kinase domain of PDGFRβ was assayed in 50 mM Hepes; purchased Invitrogen P3082

[4] = test system: MNFS60 (murine AML cells); assay: Cell viability assay in MCSF dependent MNFS60 cells (Cell Titer Glo); type: cell-based; settings: Mus musculus, tested at about 1 μM, read-out: M-NFS-60 CP percent inhibition
Description: Cell viability was assessed by Cell Titer Glo, Promega. […] Test compounds were serially diluted (3 fold) in DMSO to 500× the final concentration. […] Final concentration of MCSF is 10 ng/ml. Cells were incubated for 72 hrs at 37° C., 5% CO2. After the incubation 100 μl Cell Titer Glo is added to each well to determine viable cells. The assay was performed according to the manufacturer's instruction (Promega Corporation, Madison, Wis. USA). Each experimental condition was performed in triplicate. Raw data was imported in Abase and EC50s calculated with XL-fit data analysis software.

T2 sequence (P10721 589-937 limits assumed): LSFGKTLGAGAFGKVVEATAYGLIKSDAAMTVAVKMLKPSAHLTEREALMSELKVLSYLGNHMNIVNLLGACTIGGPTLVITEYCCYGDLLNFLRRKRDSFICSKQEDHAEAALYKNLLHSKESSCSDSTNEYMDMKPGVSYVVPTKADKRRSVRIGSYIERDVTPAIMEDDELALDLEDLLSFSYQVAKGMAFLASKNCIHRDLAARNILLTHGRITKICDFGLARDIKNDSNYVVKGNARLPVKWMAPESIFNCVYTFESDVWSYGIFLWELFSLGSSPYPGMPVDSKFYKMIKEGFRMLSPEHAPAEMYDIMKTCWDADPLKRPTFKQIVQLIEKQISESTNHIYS
T3 sequence (P09619 600-962 limits assumed): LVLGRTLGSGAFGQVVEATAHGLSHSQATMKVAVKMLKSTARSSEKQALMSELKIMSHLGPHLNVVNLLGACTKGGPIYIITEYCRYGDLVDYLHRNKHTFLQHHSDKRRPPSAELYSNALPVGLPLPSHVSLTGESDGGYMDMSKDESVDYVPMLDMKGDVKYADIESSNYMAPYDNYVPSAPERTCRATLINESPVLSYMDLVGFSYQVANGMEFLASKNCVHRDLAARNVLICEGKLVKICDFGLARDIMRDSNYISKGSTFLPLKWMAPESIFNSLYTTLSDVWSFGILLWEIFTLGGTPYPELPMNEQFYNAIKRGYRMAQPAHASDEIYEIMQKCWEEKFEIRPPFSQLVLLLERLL

CNC(=O)c1cc(Oc2ccc3nc(NCCc4cnccn4)sc3c2)ccn1 [Compound 148]
inhibition at 1 µM ([1]; compounds of Table 3): 96%
inhibition at 1 µM ([2]; compounds of Table 3): 23%
inhibition at 1 µM ([3]; compounds of Table 3): 2%
inhibition at 1 µM ([4]; compounds of Table 3): 1%

CNC(=O)c1cc(Oc2ccc3nc(NCCC(C)C)sc3c2)ccn1 [Compound 130]
inhibition at 1 µM ([1]; compounds of Table 3): 100%
inhibition at 1 µM ([2]; compounds of Table 3): 90%
inhibition at 1 µM ([3]; compounds of Table 3): 70%
inhibition at 1 µM ([4]; compounds of Table 3): 79%

CNc1cc(Oc2ccc3nc(N[C@@H]4CCCC[C@H]4O)sc3c2)ccn1 [Example 368, (1R,2R)-2-(6-(2-(methylamino)pyridin-4-yloxy)benzo[d]thiazol-2-ylamino)cyclohexanol]
inhibition at 1 µM [1]: 100%
inhibition at 1 µM [2]: 24%
inhibition at 1 µM [3]: 8%
inhibition at 1 µM ([4]; MCSF dependent MNFS60 cells): 12%

CCOC(=O)C1(CNc2nc3ccc(Oc4ccnc(C(=O)NC)c4)cc3o2)CCCCC1 [Compound 75, 1-{[6-(2-Methylcarbamoyl-pyridin-4-yloxy)-benzooxazol-2-ylamino]-methyl}-cyclohexane-carboxylic acid ethyl ester]
inhibition at 1 µM [1]: 99%
inhibition at 1 µM [2]: 7%
inhibition at 1 µM [3]: 0%
inhibition at 1 µM ([4]; MNFS60 cells): 0%

CNC(=O)c1cc(Oc2cc(Cl)c3nc(NCC4CCCCC4)sc3c2)ccn1 [Example 375, 4-(4-chloro-2-(cyclohexylmethylamino)benzo[d]thiazol-6-yloxy)-N-methylpicolinamide]
inhibition at 1 µM [1]: 100%
inhibition at 1 µM [2]: 97%
inhibition at 1 µM [3]: 38%
inhibition at 1 µM ([4]; MCSF dependent MNFS60 cells): 19%

CC(C)C[C@@H](CO)Nc1nc2ccc(Oc3ccnc(-c4cnn(C)c4)c3)cc2s1 [Example 358, (S)-4-methyl-2-(6-(2-(1-methyl-1H-pyrazol-4-yl)pyridin-4-yloxy)benzo[d]thiazol-2-ylamino)pentan-1-ol]
inhibition at 1 µM [1]: 100%
inhibition at 1 µM [2]: 100%
inhibition at 1 µM [3]: 99%
inhibition at 1 µM ([4]; MCSF dependent MNFS60 cells): 100%

Cn1cc(-c2cc(Oc3ccc4nc(NC[C@@H](O)c5ccccc5)sc4c3)ccn2)cn1 [Example 357, (S)-2-(6-(2-(1-methyl-1H-pyrazol-4-yl)pyridin-4-yloxy)benzo[d]thiazol-2-ylamino)-1-phenylethanol]
inhibition at 1 µM [1]: 100%
inhibition at 1 µM [2]: 91%
inhibition at 1 µM [3]: 44%
inhibition at 1 µM ([4]; MCSF dependent MNFS60 cells): 100%

CC[C@H](C)[C@@H](CO)Nc1nc2ccc(Oc3ccnc4ccccc34)cc2s1 [Example 234, (2S,3S)-3-methyl-2-(6-(quinolin-4-yloxy)benzo[d]thiazol-2-ylamino)pentan-1-ol]
inhibition at 1 µM ([1]; compounds of Table 3): 100%
inhibition at 1 µM ([2]; compounds of Table 3): 64%
inhibition at 1 µM ([3]; compounds of Table 3): 56%
inhibition at 1 µM ([4]; compounds of Table 3): 78%

c1ccc2c(Oc3ccc4nc(NCCN5CCOCC5)sc4c3)ccnc2c1 [Example 255, N-(2-morpholinoethyl)-6-(quinolin-4-yloxy)benzo[d]thiazol-2-amine]
inhibition at 1 µM ([1]; compounds of Table 3): 100%
inhibition at 1 µM ([2]; compounds of Table 3): 92%
inhibition at 1 µM ([3]; compounds of Table 3): 8%
inhibition at 1 µM ([4]; compounds of Table 3): 69%

CNC(=O)c1cc(Oc2ccc3nc(Nc4cccc5c4OCCO5)oc3c2)ccn1 [Compound 94, 4-[2-(2,3-Dihydro-benzo-[1,4]dioxin-5-ylamino)-benzooxazol-6-yloxy]-pyridine-2-carboxylic acid methylamide]
inhibition at 1 µM [1]: 99%
inhibition at 1 µM [2]: 14%
inhibition at 1 µM ([4]; MNFS60 cells): 28%

Cn1cc(-c2cc(Oc3ccc4nc(N[C@H]5c6ccccc6C[C@H]5O)sc4c3)ccn2)cn1 [Example 350, (1S,2R)-1-(6-(2-(1-methyl-1H-pyrazol-4-yl)pyridin-4-yloxy)benzo[d]thiazol-2-ylamino)-2,3-dihydro-1H-inden-2-ol]
inhibition at 1 µM [1]: 100%
inhibition at 1 µM [2]: 100%
inhibition at 1 µM [3]: 91%
inhibition at 1 µM ([4]; MCSF dependent MNFS60 cells): 100%

CNC(=O)c1cc(Oc2ccc3nc(NCCc4ccccc4)oc3c2)ccn1 [Compound 61, 4-(2-Phenylethylamino-benzo-oxazol-6-yloxy)-pyridine-2-carboxylic acid methylamide]
inhibition at 1 µM [1]: 94%
inhibition at 1 µM [2]: 74%
inhibition at 1 µM [3]: 0%
inhibition at 1 µM ([4]; MNFS60 cells): 35%

CNC(=O)c1cc(Oc2ccc3nc(N[C@H](C)C(C)C)sc3c2)ccn1 [Compound 149]
inhibition at 1 µM ([1]; compounds of Table 3): 100%
inhibition at 1 µM ([2]; compounds of Table 3): 29%
inhibition at 1 µM ([3]; compounds of Table 3): 21%
inhibition at 1 µM ([4]; compounds of Table 3): 48%

CCOc1ccccc1Nc1nc2ccc(Oc3ccnc(C(=O)NC)c3)cc2o1 [Compound 12, 4-[2-(2-Ethoxy-phenylamino)-benzooxazol-6-yloxy]-pyridin-2-carboxylic acid methylamide]
inhibition at 1 µM [1]: 99%
inhibition at 1 µM [3]: 12%
inhibition at 1 µM ([4]; MNFS60 cells): 30%

CNC(=O)c1cc(Oc2ccc3nc(Nc4ccccc4OC)oc3c2)ccn1 [Compound 11, 4-[2-(2-Methoxy-phenylamino)-benzooxazol-6-yloxy]-pyridin-2-carboxylic acid methylamide]
inhibition at 1 µM [1]: 99%
inhibition at 1 µM [3]: 96%
inhibition at 1 µM ([4]; MNFS60 cells): 26%

CNC(=O)c1cc(Oc2ccc3nc(NCc4ccc(OC)c(OC)c4)oc3c2)ccn1 [Compound 90, 4-[2-(3,4-Dimethoxy-benzyl-amino)-benzooxazol-6-yloxy]-pyridine-2-carboxylic acid methylamide]
inhibition at 1 µM [1]: 99%
inhibition at 1 µM [2]: 22%
inhibition at 1 µM ([4]; MNFS60 cells): 18%

CNC(=O)c1cc(Oc2ccc3nc(Nc4ccccc4-c4cnco4)oc3c2)ccn1 [Compound 46, 4-[2-(2-Oxazol-5-yl-phenylamino)-benzooxazol-6-yloxy]-pyridine-2-carboxylic acid methylamide]
inhibition at 1 µM [1]: 94%
inhibition at 1 µM [3]: 15%
inhibition at 1 µM ([4]; MNFS60 cells): 1%

CNC(=O)c1cc(Oc2ccc3nc(NCc4ccccn4)oc3c2)ccn1 [Compound 40, 4-{2-[(Pyridin-2-ylmethyl)-amino]-benzooxazol-6-yloxy}-pyridine-2-carboxylic acid methylamide]
inhibition at 1 µM [1]: 99%
inhibition at 1 µM [3]: 6%
inhibition at 1 µM ([4]; MNFS60 cells): 0%

CNC(=O)c1cc(Oc2ccc3nc(NCc4c(F)cccc4F)oc3c2)ccn1 [Compound 87, 4-[2-(2,6-Difluoro-benzylamino)-benzooxazol-6-yloxy]-pyridine-2-carboxylic acid methylamide]
inhibition at 1 µM [1]: 99%
inhibition at 1 µM [2]: 42%
inhibition at 1 µM ([4]; MNFS60 cells): 21%

CNC(=O)c1cc(Oc2ccc3nc(NCc4ccc(OC)cc4OC)oc3c2)ccn1 [Compound 92, 4-[2-(2,4-Dimethoxy-benzyl-amino)-benzooxazol-6-yloxy]-pyridine-2-carboxylic acid methylamide]
inhibition at 1 µM [1]: 99%
inhibition at 1 µM [2]: 98%
inhibition at 1 µM ([4]; MNFS60 cells): 17%

CNC(=O)c1cc(Oc2ccc3nc(Nc4ccccc4CCN4CCOCC4)oc3c2)ccn1 [Compound 48, 4-{2-[2-(2-Morpholin-4-yl-ethyl)-phenylamino]-benzo-oxazol-6-yloxy}-pyridine-2-carboxylic acid methylamide]
inhibition at 1 µM [1]: 84%
inhibition at 1 µM [3]: 0%
inhibition at 1 µM ([4]; MNFS60 cells): 0%

CNC(=O)c1cc(Oc2ccc3nc(Nc4ccccc4)oc3c2)ccn1 [Compound 26, 4-(2-Phenylamino-benzooxazol-6-yloxy)-pyridine-2-carboxylic acid methylamide]
inhibition at 1 µM [1]: 98%
inhibition at 1 µM [3]: 100%
inhibition at 1 µM ([4]; MNFS60 cells): 24%

CNC(=O)c1cc(Oc2ccc3nc(NC4CCCCC4)oc3c2)ccn1 [Compound 24, 4-(2-Cyclohexylamino-benzooxazol-6-yloxy)-pyridine-2-carboxylic acid methylamide]
inhibition at 1 µM [1]: 99%
inhibition at 1 µM [3]: 20%
inhibition at 1 µM ([4]; MNFS60 cells): 12%

CC(=O)Nc1cc(Oc2ccc3nc(NC4CCCCC4)oc3c2)ccn1 [Compound 29, N-[4-(2-Cyclohexylamino-benzooxazol-6-yloxy)-pyridin-2-yl]-acetamide]
inhibition at 1 µM [1]: 99%
inhibition at 1 µM [3]: 51%
inhibition at 1 µM ([4]; MNFS60 cells): 0%
